Measured values taken from the supplement of paper PMC6965134.
± gives the standard deviation of the averaged measurements.

Assay: TIMS collisional cross section (CCS, N2) of the lipid ion; higher = larger ion cross section
Settings: ionization mode: positive, one isomer drawn

| Compound | TIMS collisional cross section (sample type: plasma) [Å²] | TIMS collisional cross section (sample type: HeLa) [Å²] | TIMS collisional cross section (sample type: Liver) [Å²] |
| --- | --- | --- | --- |
| CC/C=C\C/C=C\C/C=C\C/C=C\C/C=C\C/C=C\CCC(=O)O[C@H](CO)COP(=O)(O)OCCN [LPE 22:6] (ion (formula + adduct): [C27H44NO7P+H] 1+) | 217.7 | – | – |
| CC/C=C\C/C=C\C/C=C\C/C=C\C/C=C\C/C=C\CCC(=O)OC[C@@H](O)COP(=O)(O)OCCN [LPE 22:6] (ion (formula + adduct): [C27H44NO7P+H] 1+) | 218.3 ± 0.85 | 218.95 ± 0.071 | 218 |
| CCCCC/C=C\C/C=C\CCCCCCCCCC(=O)OC[C@@H](O)COP(=O)(O)OC[C@@H](O)CO [LPG 20:2] (ion (formula + adduct): [C26H49O9P+H] 1+) | – | – | 230.1 |
| CCCCCCCCCCCCCCCCCC(=O)OC[C@@H](O)COP(=O)(O)O[C@H]1C(O)C(O)C(O)[C@@H](O)C1O (some centres not stated) [LPI 18:0] (ion (formula + adduct): [C27H53O12P+H] 1+) | 248.8 | 248.8 | 249.1 |
| CCCCC/C=C\C/C=C\CCCCCCCC(=O)OC[C@@H](O)COP(=O)(O)O[C@H]1C(O)C(O)C(O)[C@@H](O)C1O (some centres not stated) [LPI 18:2_0:0] (ion (formula + adduct): [C27H49O12P+H] 1+) | 243 | – | – |
| CCCCCCCCCCCCCCCCCC(=O)OC[C@@H](O)COP(=O)(O)OC[C@H](N)C(=O)O [LPS 18:0] (ion (formula + adduct): [C24H48NO9P+H] 1+) | – | 229.2 | 229.2 |
| CCCCC/C=C\C/C=C\C/C=C\C/C=C\CCCC(=O)OC[C@@H](O)COP(=O)(O)OC[C@H](N)C(=O)O [LPS 20:4] (ion (formula + adduct): [C26H44NO9P+H] 1+) | – | – | 221.9 |
| OC[C@]([H])(OC(CCC/C=C\C/C=C\C/C=C\C/C=C\CCCCC)=O)CO [MG 0:0_20:4_0:0] (ion (formula + adduct): [C23H38O4+H] 1+) | 197.1 | – | 195.7 |
| CCCCC/C=C\C[C@H](O)/C=C/C=C\C/C=C\CCCC(=O)O[C@H](COC(=O)CCCCCCCCCCCCCCC)COP(=O)([O-])OCC[N+](C)(C)C [Oxidized PC 16:0@_20:4] (ion (formula + adduct): [C44H80NO9P+H] 1+) | 289.9 ± 0.36 | – | – |
| CCCCCCCCCCCCCCCC(=O)OC[C@H](COP(=O)([O-])OCC[N+](C)(C)C)OC(=O)CCCC=O [Oxidized PC 16:0_5:0@] (ion (formula + adduct): [C29H56NO9P+H] 1+) | 245.55 ± 0.35 | – | 245.3 |
| CCCCCCCCCCCCCCCC(=O)OC[C@H](COP(=O)([O-])OCC[N+](C)(C)C)OC(=O)CCCCCCCC=O [Oxidized PC 16:0_9:0@] (ion (formula + adduct): [C33H64NO9P+H] 1+) | 257 ± 0.14 | 257.85 ± 1.6 | – |
| CCCCC/C=C\C[C@H](O)/C=C/C=C\C/C=C\CCCC(=O)O[C@H](COC(=O)CCCCCCCCCCCCCCC)COP(=O)([O-])OCC[N+](C)(C)C [Oxidized PC 16:0_20:4@] (ion (formula + adduct): [C44H80NO9P+H] 1+) | – | – | 290.3 |
| CCCCC/C=C\C[C@H](O)/C=C/C=C\C/C=C\CCCC(=O)O[C@H](COC(=O)CCCCCCCCCCCCCCCCC)COP(=O)([O-])OCC[N+](C)(C)C [Oxidized PC 18:0@_20:4] (ion (formula + adduct): [C46H84NO9P+H] 1+) | 297.15 ± 0.92 | – | – |
| CCCCC/C=C\C[C@H](O)/C=C/C=C\C/C=C\CCCC(=O)O[C@H](COC(=O)CCCCCCCCCCCCCCCCC)COP(=O)([O-])OCC[N+](C)(C)C [Oxidized PC 18:0_20:4] (ion (formula + adduct): [C46H84NO9P+H] 1+) | 296.7 | – | – |
| CCCCCCCCCCCCCCCCCC(=O)O[C@H](COC(=O)CCCCCCC)COP(=O)([O-])OCC[N+](C)(C)C [PC 8:0_18:0@] (ion (formula + adduct): [C34H68NO8P+H] 1+) | – | – | 265.4 |
| CCCCCCCCCCCCCC(=O)O[C@H](COC(=O)CCCCCCCCCCC)COP(=O)([O-])OCC[N+](C)(C)C [PC 12:0@_14:0] (ion (formula + adduct): [C34H68NO8P+H] 1+) | – | 266.9 | – |

More lines, now with the values ahead:

| TIMS collisional cross section (sample type: plasma) [Å²] | TIMS collisional cross section (sample type: HeLa) [Å²] | TIMS collisional cross section (sample type: Liver) [Å²] | Compound |
| --- | --- | --- | --- |
| 269.3 | – | – | CCCCCCCCCCCCCCC(=O)O[C@H](COC(=O)CCCCCCCCCCC)COP(=O)([O-])OCC[N+](C)(C)C [PC 12:0_15:0@] (ion (formula + adduct): [C35H70NO8P+H] 1+) |
| – | 276.1 | – | CCCCCCCCCCCCCCC(=O)O[C@H](COC(=O)CCCCCCCCCCCCC)COP(=O)([O-])OCC[N+](C)(C)C [PC 14:0@_15:0] (ion (formula + adduct): [C37H74NO8P+H] 1+) |
| – | 279.2 | – | CCCCCCCCCCCCCCCC(=O)O[C@H](COC(=O)CCCCCCCCCCCCC)COP(=O)([O-])OCC[N+](C)(C)C [PC 14:0@_16:0] (ion (formula + adduct): [C38H76NO8P+H] 1+) |
| – | – | 277.5 | CC/C=C\C/C=C\C/C=C\CCCCCCCC(=O)O[C@H](COC(=O)CCCCCCCCCCCCC)COP(=O)([O-])OCC[N+](C)(C)C [PC 14:0@_18:3] (ion (formula + adduct): [C40H74NO8P+H] 1+) |
| – | 278.8 | – | CC/C=C\C/C=C\C/C=C\C/C=C\CCCCC(=O)O[C@H](COC(=O)CCCCCCCCCCCCC)COP(=O)([O-])OCC[N+](C)(C)C [PC 14:0@_18:4] (ion (formula + adduct): [C40H72NO8P+H] 1+) |
| 282 | – | – | CCCCC/C=C\C/C=C\C/C=C\C/C=C\CCCC(=O)O[C@H](COC(=O)CCCCCCCCCCCCC)COP(=O)([O-])OCC[N+](C)(C)C [PC 14:0@_20:4] (ion (formula + adduct): [C42H76NO8P+H] 1+) |
| 284.8 | – | – | CC/C=C\C/C=C\C/C=C\C/C=C\C/C=C\C/C=C\CCC(=O)O[C@H](COC(=O)CCCCCCCCCCCCC)COP(=O)([O-])OCC[N+](C)(C)C [PC 14:0@_22:6] (ion (formula + adduct): [C44H76NO8P+H] 1+) |
| – | 276.3 | – | CCCCCCCCCCCCCCC(=O)O[C@H](COC(=O)CCCCCCCCCCCCC)COP(=O)([O-])OCC[N+](C)(C)C [PC 14:0_15:0] (ion (formula + adduct): [C37H74NO8P+H] 1+) |
| – | 280.6 | – | CCCCCCCCCCCCCCCC(=O)O[C@H](COC(=O)CCCCCCCCCCCCC)COP(=O)([O-])OCC[N+](C)(C)C [PC 14:0_16:0] (ion (formula + adduct): [C38H76NO8P+H] 1+) |
| – | 276.5 | – | CCCCCC/C=C\CCCCCCCC(=O)O[C@H](COC(=O)CCCCCCCCCCCCC)COP(=O)([O-])OCC[N+](C)(C)C [PC 14:0_16:1@] (ion (formula + adduct): [C38H74NO8P+H] 1+) |
| – | 275.8 | – | CCCCCC/C=C\CCCCCCCC(=O)O[C@H](COC(=O)CCCCCCCCCCCCC)COP(=O)([O-])OCC[N+](C)(C)C [PC 14:0_16:1] (ion (formula + adduct): [C38H74NO8P+H] 1+) |
| 278.7 | 279.2 | – | CCC/C=C\C/C=C\CCCCCCCCCC(=O)O[C@H](COC(=O)CCCCCCCCCCCCC)COP(=O)([O-])OCC[N+](C)(C)C [PC 14:0_18:2] (ion (formula + adduct): [C40H76NO8P+H] 1+) |
| – | 285.3 | – | CC/C=C\C/C=C\C/C=C\C/C=C\C/C=C\C/C=C\CCC(=O)O[C@H](COC(=O)CCCCCCCCCCCCC)COP(=O)([O-])OCC[N+](C)(C)C [PC 14:0_22:6@] (ion (formula + adduct): [C44H76NO8P+H] 1+) |
| – | 272.4 | – | CCCC/C=C\CCCCCCCC(=O)OC[C@H](COP(=O)([O-])OCC[N+](C)(C)C)OC(=O)CCCCCCC/C=C\CCCCCC [PC 14:1@_16:1] (ion (formula + adduct): [C38H72NO8P+H] 1+) |
| – | 282.3 | – | CCCC/C=C\CCCCCCCC(=O)OC[C@H](COP(=O)([O-])OCC[N+](C)(C)C)OC(=O)CCCCCCCCCCCCCCCCC [PC 14:1@_18:0] (ion (formula + adduct): [C40H78NO8P+H] 1+) |
| 280.9 | – | 281 | CCCCC/C=C\C/C=C\CCCCCCCC(=O)O[C@H](COC(=O)CCCCCCCCCCCCCC)COP(=O)([O-])OCC[N+](C)(C)C [PC 15:0@_18:2] (ion (formula + adduct): [C41H78NO8P+H] 1+) |
| – | 279.7 | – | CCCCC/C=C\C/C=C\C/C=C\CCCCC(=O)O[C@H](COC(=O)CCCCCCCCCCCCCC)COP(=O)([O-])OCC[N+](C)(C)C [PC 15:0@_18:3] (ion (formula + adduct): [C41H76NO8P+H] 1+) |
| – | 282.3 | – | CC/C=C\C/C=C\C/C=C\C/C=C\C/C=C\CCCC(=O)O[C@H](COC(=O)CCCCCCCCCCCCCC)COP(=O)([O-])OCC[N+](C)(C)C [PC 15:0@_20:5] (ion (formula + adduct): [C43H76NO8P+H] 1+) |
| 288.2 | – | – | CC/C=C\C/C=C\C/C=C\C/C=C\C/C=C\C/C=C\CCC(=O)O[C@H](COC(=O)CCCCCCCCCCCCCC)COP(=O)([O-])OCC[N+](C)(C)C [PC 15:0@_22:6] (ion (formula + adduct): [C45H78NO8P+H] 1+) |
| – | 282.1 | – | CCCCCCCCCCCCCCCC(=O)O[C@H](COC(=O)CCCCCCCCCCCCCC)COP(=O)([O-])OCC[N+](C)(C)C [PC 15:0_16:0] (ion (formula + adduct): [C39H78NO8P+H] 1+) |
| – | 278.9 | – | CCCCCC/C=C\CCCCCCCC(=O)O[C@H](COC(=O)CCCCCCCCCCCCCC)COP(=O)([O-])OCC[N+](C)(C)C [PC 15:0_16:1] (ion (formula + adduct): [C39H76NO8P+H] 1+) |
